Experimental data as given in patent EP4635945A1, “CRYSTAL FORM OF PROXIMOD, PREPARATION METHOD THEREFOR, AND USE THEREOF” (Jiankuan (Suzhou) Biotechnology Co., Ltd, priority 2022, dated 2024).

Assay: Crystal form stability on vacuum drying (XRPD)
Assay type: physicochemical
Method: After the above sample was dried under vacuum at 50 °C for 6 hours, the XRPD detection was performed. […] The TGA curves of the sample of the crystal form D of proximod which was dried and the sample of the crystal form D of proximod which was dried and placed at room temperature for two days are shown in FIGS. 16 and 17, respectively. […] The theoretical weight loss of the proximod […] is 6.1%. […] Based on the above experimental results, it is inferred that the crystal form D is an unstable sesquihydrate. It is inferred that the crystal form D is an unstable sesquihydrate and is prone to crystal transformation during drying and storage, making it difficult to prepare a pure phase.
The obtained wet sample was subjected to the XRPD detection. The obtained solid was the crystal form F of the present application, and the X-ray powder diffraction (XRPD) pattern of the crystal form F is shown in FIG. 21. After the wet sample was dried under vacuum at 50 °C for 2 hours, the XRPD detection was performed.

SMILES | Crystal form after drying (XRPD) (wet sample dried under vacuum at 50 °C for 2 hours) | Crystal form after drying (XRPD) (dried under vacuum at 50 °C for 6 hours)
CCCc1nc(-c2ccc(-c3ccc(CCC(N)(CO)CO)cc3)cc2)co1.Cl [Crystal form F, 2-amino-2-{2-(4'-(2-propyloxazol-4-yl)-[1,1'-biphenyl]-4-yl)ethyl}-1,3-propanediol hydrochloride] | partially crystal transformed into the crystal form A | –
CCCc1nc(-c2ccc(-c3ccc(CCC(N)(CO)CO)cc3)cc2)co1.Cl [Crystal form D, 2-amino-2-{2-(4'-(2-propyloxazol-4-yl)-[1,1'-biphenyl]-4-yl)ethyl}-1,3-propanediol hydrochloride] | – | partially crystal transformed into the crystal form A
